Data taken from patent publication US20240369550A1, “MACROMOLECULAR STRUCTURES AND USES THEREOF” (The Regents of the University of Michigan, priority 2015, published 2024).
“Also recorded” adds a separate entry of the source.

System: DNase I
Test: DNase I-mediated degradation of DNA-histone structures (degradation modifier assay)
Format: biochemical, bovine
Details: LL-37 approx. 0.5, 5 or 50 μM; total Sytox Green fluorescence; relative to structures lacking LL-37 treated with DNase I
Experimental: Time-lapse microscopy and microplate photometry were utilized to measure the overall rate of degradation, and DNA-histone structures were treated with multiple concentrations of DNase I to verify the dose-dependency of this rate (FIG. 3).
1 mg/ml DNase I (MW 31 kDa) was prepared in 10 mM Tris-HCl, 10 mM CaCl2, pH 7.5 (Tris buffer). Each well containing DNA-histone structures (as previously described) was washed 3 times with 150 μl of Tris buffer, and all solutions within each well were removed. 200 μL of the DNase I solution was then added to each well, and time-lapse fluorescent images of each well were acquired.
1 mg/ml LL-37 (MW 4.49 kDa) and 2 mg/ml histones (both in PBS) were added to a solution of 20% w/w PEG/PBS such that the final concentration of histones was approximately 1 mg/ml, and the final concentration of LL-37 in each solution was approximately 0.5 μM, 5 μM, or 50 μM. […]
After complete removal of the solutions in each well, 150 μL of DNase I solution was added to each well. Time-lapse images or measurements of total fluorescence were acquired at a rate of one measurement per minute.

Substance: LL-37
- overall rate of DNase I-mediated degradation of DNA-histone structures: dose-dependent decrease in the overall rate of DNase I-mediated degradation; also recorded: inhibit the rate of DNase I mediated degradation
